pKi: −log10 of the molar value.
Assays:
[1] = target: T1, FER (Homo sapiens, UniProt P16591); test: Kinase panel, CaNDY 1 µM; type: biochemical; conditions: CaNDY 1 µM relative to DMSO
T1 construct: purchased Carna Biosciences

[2] = target: T2, FGFR4(V550L) (Homo sapiens, UniProt P22455, V550L); test: Kinase panel, CaNDY 1 µM; type: biochemical; conditions: CaNDY 1 µM relative to DMSO
T2 construct: purchased Carna Biosciences

[3] = target: T3, FLT1 (Homo sapiens, UniProt P17948); test: Kinase panel, CaNDY 1 µM; type: biochemical; conditions: CaNDY 1 µM relative to DMSO
T3 construct: purchased Carna Biosciences

[4] = target: T4, FYN (Homo sapiens, UniProt P06241); test: Kinase panel, CaNDY 1 µM; type: biochemical; conditions: CaNDY 1 µM relative to DMSO
T4 construct: purchased Carna Biosciences

[5] = target: T5, TIE2 (Homo sapiens, UniProt Q02763); test: Kinase panel, CaNDY 1 µM; type: biochemical; conditions: CaNDY 1 µM relative to DMSO
T5 construct: purchased Carna Biosciences

[6] = target: T6, TNK1 (Homo sapiens, UniProt Q13470); test: Kinase panel, CaNDY 1 µM; type: biochemical; conditions: CaNDY 1 µM relative to DMSO
T6 construct: purchased Carna Biosciences

[7] = target: T7, CK2α1/β (Homo sapiens, UniProt P68400); test: Kinase panel, CaNDY 1 µM; type: biochemical
T7 construct: purchased Carna Biosciences

[8] = target: T8, PBK (Homo sapiens, UniProt Q96KB5); test: Kinase panel, CaNDY 1 µM; type: biochemical; conditions: CaNDY 1 µM relative to DMSO
T8 construct: purchased Carna Biosciences

[9] = target: T9, PDHK4 (Homo sapiens, UniProt Q16654); test: Kinase panel, CaNDY 1 µM; type: biochemical; conditions: CaNDY 1 µM relative to DMSO
T9 construct: purchased Carna Biosciences

[10] = target: T10, PKCγ (Homo sapiens, UniProt P05129); test: Kinase panel, CaNDY 1 µM; type: biochemical; conditions: CaNDY 1 µM relative to DMSO
T10 construct: purchased Carna Biosciences

[11] = target: T11, GST-tagged human DYRK1A (Homo sapiens, UniProt Q13627); test: ATP kinetics assay; type: biochemical
T11 construct: purchased Life Technologies PV3785
Procedure: The kinase reaction for ATP kinetics was performed in a reaction mixture containing serially diluted inhibitors, 10 mM MOPS-KOH (pH 7.0), 10 mM magnesium acetate, 200 μM EDTA, 2.5–40 μM ATP, 0.125–0.4 μCi [γ-^32P]ATP, 5 μM DYRKtide (Anaspec, CA, USA), and 1 nM of GST-tagged human DYRK1A (Cat# PV3785, Life Technologies), for a final volume of 25 μl. The final concentration of DMSO was adjusted to 0.1%, regardless of the inhibitor concentration. The reaction mixture was incubated at 30 °C for 15 min, and phosphoric acid (final 5%) was then added to stop the reaction. 25 μL of the reaction mixture was dispensed onto P81, a phosphocellulose membrane (Whatman, GE Healthcare), and washed four times in 5% phosphoric acid. Cherenkov light from the incorporated ^32P was measured using a liquid scintillation counter. The kinase assay conditions, including the incubation period and the concentration of the kinases and substrates, were optimized to maintain linearity during the incubation. The net radioactivity was determined by subtracting the background count from the reaction mixture without kinase. The amount of incorporated ^32P was calculated from the standard line. The Km and Ki values were calculated with Prism6 software (GraphPad Software, San Diego, CA, USA) using the competitive inhibition model.

[12] = target: T12, endogenous DYRK1A (Homo sapiens, UniProt Q13627); test: Western blot of endogenous DYRK1A protein in HEK293 cells; type: cell-based; conditions: CaNDY 2 μM, 4 days
T12 construct: endogenous in cells; host or cells: HEK293
Procedure: We investigated whether CaNDY destabilizes DYRK1A as ganetespib does. […] Next we examined whether CaNDY decreased endogenous DYRK1A protein. HEK293 cells were cultured for 0–4 days with CaNDY (2 μM) and then subjected to SDS-PAGE followed by Western blot analysis using antibodies against DYRK1A and GAPDH. […] The treated cells were also subjected to reverse transcription followed by quantitative PCR analysis.
(§1) Western blot analysis was performed using the antibodies described above. In brief, total cell lysates were separated by SDS-PAGE (5–20% gels; ATTO, Tokyo, Japan) under reducing conditions and then transferred to a PVDF membrane (PALL, SP, Brazil). Antibody reactions were performed with Can Get Signal® Immunoreaction Enhancer Solution (Toyobo). Peroxidase activities on the membrane were visualized with ECL Western Blotting Detection Reagents (GE Healthcare) or ImmunoStar® LD (Wako Pure Chemical Industries, Osaka, Japan), and a ChemiDoc^TM MP Imaging System (Bio-Rad, Hercules, CA, USA).

[13] = target: CLK1 (Homo sapiens, UniProt P49759); test: Western blot of target kinase expression in HEK293 cells; type: cell-based; set-up: endogenous in cells; host or cells: HEK293; conditions: CaNDY 2 μM, 4 days
Procedure: (§2) To check selectivity of CaNDY for other kinases, we first examined protein expression of several kinases in HEK293 cells treated with CaNDY (2 μM) for 4 days. […] Third, protein expression of these kinases targeted by CaNDY (DYRK1A, DYRK1B, CLK1, and Haspin) was reassessed by Western blot analysis as performed in Fig. 7b.
as §1

[14] = target: T13, Haspin (Homo sapiens, UniProt Q8TF76); test: as above; type: cell-based; set-up: endogenous in cells; host or cells: HEK293; conditions: CaNDY 2 μM, 4 days
T13 sequence (Q8TF76 1-798): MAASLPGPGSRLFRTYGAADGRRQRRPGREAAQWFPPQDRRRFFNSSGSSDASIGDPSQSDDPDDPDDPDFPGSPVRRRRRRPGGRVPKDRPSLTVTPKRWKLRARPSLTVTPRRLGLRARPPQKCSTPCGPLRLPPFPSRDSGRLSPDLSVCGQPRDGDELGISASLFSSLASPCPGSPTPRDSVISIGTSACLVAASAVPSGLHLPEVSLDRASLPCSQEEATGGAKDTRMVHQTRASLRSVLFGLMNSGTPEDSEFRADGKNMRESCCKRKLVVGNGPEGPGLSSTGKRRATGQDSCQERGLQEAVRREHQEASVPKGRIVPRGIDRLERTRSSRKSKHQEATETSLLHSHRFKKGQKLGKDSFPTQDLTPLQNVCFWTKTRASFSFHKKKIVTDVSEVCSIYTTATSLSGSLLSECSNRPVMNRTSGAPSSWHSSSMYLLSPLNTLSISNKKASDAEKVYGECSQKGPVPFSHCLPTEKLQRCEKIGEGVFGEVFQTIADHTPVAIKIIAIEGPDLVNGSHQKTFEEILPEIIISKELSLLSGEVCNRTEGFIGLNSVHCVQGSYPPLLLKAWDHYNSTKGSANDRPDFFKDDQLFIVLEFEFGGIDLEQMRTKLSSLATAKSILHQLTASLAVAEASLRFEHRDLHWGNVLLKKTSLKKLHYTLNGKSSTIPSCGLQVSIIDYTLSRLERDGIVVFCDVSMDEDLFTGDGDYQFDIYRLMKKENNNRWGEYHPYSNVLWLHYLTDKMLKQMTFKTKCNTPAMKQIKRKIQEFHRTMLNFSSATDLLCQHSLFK
Procedure: as §2, §1

T7 sequence (P68400 whole entry): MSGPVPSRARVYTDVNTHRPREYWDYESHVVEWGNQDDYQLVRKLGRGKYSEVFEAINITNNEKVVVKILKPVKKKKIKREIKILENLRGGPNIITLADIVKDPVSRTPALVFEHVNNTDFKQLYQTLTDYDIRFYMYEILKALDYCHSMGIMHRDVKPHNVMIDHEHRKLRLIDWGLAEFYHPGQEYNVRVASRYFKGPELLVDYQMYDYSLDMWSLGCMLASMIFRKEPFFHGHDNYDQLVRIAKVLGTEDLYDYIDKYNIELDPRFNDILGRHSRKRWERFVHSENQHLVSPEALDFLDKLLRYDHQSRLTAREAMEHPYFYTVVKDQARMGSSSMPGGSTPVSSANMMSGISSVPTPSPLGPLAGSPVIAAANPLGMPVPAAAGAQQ
T7 sequence (P67870 whole entry partner): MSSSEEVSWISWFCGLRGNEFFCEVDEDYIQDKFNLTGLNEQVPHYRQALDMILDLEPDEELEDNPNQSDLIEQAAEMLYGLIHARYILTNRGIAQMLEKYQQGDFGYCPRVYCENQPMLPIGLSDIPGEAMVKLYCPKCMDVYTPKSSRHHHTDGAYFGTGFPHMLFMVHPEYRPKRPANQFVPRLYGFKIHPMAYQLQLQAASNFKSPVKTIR
T4 sequence (P06241 whole entry): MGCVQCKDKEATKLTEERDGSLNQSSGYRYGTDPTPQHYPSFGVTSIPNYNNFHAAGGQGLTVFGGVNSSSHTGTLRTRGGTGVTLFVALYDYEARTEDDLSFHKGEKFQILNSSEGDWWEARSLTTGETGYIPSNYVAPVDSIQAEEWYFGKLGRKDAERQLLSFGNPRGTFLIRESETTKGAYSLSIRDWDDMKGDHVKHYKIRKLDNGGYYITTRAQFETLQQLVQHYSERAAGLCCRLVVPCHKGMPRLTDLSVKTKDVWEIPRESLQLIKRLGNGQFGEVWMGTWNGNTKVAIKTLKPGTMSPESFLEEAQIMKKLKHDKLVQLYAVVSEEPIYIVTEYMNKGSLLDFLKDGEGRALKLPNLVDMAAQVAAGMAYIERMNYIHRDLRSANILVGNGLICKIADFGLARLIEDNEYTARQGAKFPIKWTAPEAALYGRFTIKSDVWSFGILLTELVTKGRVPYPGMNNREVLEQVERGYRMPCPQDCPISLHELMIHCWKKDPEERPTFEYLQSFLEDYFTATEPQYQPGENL
T6 sequence (Q13470 whole entry): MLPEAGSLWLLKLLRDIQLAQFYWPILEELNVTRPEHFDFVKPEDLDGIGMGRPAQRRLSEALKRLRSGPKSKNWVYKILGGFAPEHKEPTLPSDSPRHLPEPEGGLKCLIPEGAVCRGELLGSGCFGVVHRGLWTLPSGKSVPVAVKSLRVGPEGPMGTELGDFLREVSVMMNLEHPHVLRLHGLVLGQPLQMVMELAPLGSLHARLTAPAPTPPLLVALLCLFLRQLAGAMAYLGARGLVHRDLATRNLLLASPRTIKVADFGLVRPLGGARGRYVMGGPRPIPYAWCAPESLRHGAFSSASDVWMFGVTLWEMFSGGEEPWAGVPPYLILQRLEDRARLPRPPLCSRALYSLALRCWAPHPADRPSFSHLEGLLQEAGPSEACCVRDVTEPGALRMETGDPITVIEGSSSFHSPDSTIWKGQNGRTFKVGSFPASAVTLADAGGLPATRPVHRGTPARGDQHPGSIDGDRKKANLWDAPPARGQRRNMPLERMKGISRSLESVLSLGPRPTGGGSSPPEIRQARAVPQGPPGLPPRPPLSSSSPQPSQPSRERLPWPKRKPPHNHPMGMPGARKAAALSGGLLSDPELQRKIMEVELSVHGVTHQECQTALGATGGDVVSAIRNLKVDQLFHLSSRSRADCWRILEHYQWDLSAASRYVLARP
T8 sequence (Q96KB5 whole entry): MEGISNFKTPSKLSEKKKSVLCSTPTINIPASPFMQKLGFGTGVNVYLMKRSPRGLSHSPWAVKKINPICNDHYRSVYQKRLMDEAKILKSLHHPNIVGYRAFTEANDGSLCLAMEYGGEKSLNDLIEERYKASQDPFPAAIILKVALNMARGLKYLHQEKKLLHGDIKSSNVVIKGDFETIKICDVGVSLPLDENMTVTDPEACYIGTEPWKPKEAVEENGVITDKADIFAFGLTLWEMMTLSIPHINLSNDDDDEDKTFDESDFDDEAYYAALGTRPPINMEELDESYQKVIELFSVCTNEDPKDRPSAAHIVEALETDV
T2 sequence (P22455 22-802 V550L): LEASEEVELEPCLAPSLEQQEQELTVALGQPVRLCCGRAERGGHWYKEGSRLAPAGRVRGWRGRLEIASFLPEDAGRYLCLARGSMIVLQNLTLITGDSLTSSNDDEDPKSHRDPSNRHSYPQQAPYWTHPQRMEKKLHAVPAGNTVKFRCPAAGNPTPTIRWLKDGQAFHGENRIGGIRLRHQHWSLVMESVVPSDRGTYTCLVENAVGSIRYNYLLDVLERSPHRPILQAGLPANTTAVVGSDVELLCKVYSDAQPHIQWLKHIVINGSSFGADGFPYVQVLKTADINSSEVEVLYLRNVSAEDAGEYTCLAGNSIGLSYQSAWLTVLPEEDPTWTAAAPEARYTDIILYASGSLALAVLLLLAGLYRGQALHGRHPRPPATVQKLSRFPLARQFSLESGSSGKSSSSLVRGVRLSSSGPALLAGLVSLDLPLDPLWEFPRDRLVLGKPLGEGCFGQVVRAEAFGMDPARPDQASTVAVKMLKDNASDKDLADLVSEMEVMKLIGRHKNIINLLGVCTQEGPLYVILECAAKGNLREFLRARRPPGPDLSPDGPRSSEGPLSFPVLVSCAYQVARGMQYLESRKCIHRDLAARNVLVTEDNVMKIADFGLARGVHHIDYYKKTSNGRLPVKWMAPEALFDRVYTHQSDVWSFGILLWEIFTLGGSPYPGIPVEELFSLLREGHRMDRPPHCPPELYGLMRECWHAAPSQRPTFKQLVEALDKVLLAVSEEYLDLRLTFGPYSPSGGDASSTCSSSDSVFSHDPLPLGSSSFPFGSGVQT
T9 sequence (Q16654 whole entry): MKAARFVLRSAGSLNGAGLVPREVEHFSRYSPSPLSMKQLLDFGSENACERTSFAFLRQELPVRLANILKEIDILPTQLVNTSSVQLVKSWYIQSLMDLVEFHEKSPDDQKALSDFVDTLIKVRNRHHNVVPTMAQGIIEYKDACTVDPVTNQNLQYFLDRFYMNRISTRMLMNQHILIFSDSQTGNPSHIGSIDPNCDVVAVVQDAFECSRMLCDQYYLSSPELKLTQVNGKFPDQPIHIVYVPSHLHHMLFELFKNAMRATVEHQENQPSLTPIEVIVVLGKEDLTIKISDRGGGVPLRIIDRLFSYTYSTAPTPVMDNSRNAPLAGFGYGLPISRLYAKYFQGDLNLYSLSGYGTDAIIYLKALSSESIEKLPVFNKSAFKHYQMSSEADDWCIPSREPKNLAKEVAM
T3 sequence (P17948 27-1338): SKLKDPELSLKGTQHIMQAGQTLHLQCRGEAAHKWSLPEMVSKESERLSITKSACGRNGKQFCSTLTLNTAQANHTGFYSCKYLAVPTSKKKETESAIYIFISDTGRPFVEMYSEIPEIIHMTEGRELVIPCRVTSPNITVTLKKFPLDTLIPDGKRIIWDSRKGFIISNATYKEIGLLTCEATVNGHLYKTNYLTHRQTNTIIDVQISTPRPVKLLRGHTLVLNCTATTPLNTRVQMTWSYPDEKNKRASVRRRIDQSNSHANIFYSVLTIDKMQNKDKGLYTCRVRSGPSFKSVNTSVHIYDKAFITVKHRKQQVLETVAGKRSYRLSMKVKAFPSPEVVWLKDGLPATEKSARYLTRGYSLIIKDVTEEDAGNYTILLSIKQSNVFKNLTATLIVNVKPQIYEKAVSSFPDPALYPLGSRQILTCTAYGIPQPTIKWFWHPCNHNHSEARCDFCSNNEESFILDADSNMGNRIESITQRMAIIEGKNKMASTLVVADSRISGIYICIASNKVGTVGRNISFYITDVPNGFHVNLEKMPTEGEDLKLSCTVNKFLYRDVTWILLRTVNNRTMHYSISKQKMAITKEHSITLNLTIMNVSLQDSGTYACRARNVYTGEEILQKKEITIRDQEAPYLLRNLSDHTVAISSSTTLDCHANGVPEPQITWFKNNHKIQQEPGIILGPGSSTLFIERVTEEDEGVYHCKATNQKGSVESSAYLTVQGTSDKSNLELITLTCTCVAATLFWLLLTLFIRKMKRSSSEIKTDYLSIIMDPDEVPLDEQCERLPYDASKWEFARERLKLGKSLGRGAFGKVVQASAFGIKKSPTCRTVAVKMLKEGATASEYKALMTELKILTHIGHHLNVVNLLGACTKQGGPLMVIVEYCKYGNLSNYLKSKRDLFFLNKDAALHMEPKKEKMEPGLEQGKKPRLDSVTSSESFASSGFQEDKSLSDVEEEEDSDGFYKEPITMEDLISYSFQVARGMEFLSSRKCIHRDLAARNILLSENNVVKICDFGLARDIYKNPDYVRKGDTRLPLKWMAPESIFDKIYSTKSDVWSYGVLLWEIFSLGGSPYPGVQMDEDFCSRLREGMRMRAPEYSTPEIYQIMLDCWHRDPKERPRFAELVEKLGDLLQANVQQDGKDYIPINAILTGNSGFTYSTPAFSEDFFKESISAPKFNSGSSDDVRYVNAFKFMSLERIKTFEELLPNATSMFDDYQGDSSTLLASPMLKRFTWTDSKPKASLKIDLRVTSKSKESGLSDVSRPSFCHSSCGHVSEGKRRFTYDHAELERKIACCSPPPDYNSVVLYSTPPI

## [H]/N=C1/NC(=O)C(=Cc2ccc3c(c2)CCO3)S1 [CaNDY, (Z)-5-[(2,3-dihydrobenzofuran-5-yl)methylene]-2-iminothiazolidin-4-one]
[1]
  remaining activity at 1 µM: 98.6%
[2]
  remaining activity at 1 µM: 105%
[3]
  remaining activity at 1 µM: 102%
[4]
  remaining activity at 1 µM: 102%
[5]
  remaining activity at 1 µM: 101%
[6]
  remaining activity at 1 µM: 99.7%
[7]; CK2α1/β, CaNDY 1 µM relative to DMSO
  remaining activity at 1 µM: 34.7%
[7]; CK2α, 1 μM CaNDY, read-out: percentage inhibition
  inhibition at 1 µM: 65%
[8]
  remaining activity at 1 µM: 98.4%
[9]
  remaining activity at 1 µM: 92%
[10]
  remaining activity at 1 µM: 90.6%
[11]; competitive inhibition model, 2.5–40 μM ATP
  pKi: 8.72
[11]; double-reciprocal plots
  mode of inhibition: competed with ATP on a single site of DYRK1A
[12]
  accumulation of endogenous DYRK1A: prevented accumulation of endogenous DYRK1A
[12]; Fig. 7d
  protein expression of DYRK1A (reassessed): decreased expression
[13]
  protein expression of CLK1: decreased expression
[14]
  protein expression of Haspin: decreased expression

— paper PMC4522657, “Identification of a DYRK1A Inhibitor that Induces Degradation of the Target Kinase using Co-chaperone CDC37 fused with Luciferase nanoKAZ” (Scientific Reports, 2015)
